Results taken from PubChem BioAssay AID256 (DTP/NCI, 2004).
Inconclusive results and toxic doses are left out.

Tested on: CD2F1 mice, L1210 leukemia ip, survival T/C
Assay: NCI In Vivo Anticancer Drug Screen. Data for tumor model L1210 Leukemia (intraperitoneal) in CD2F1 (CDF1) mice
Details: higher = longer survival
Procedure, shortened: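 Each value reflects a quotient of treated over vehicle control outcomes in mice with a transplanted tumor.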

[1] = endpoint: mean survival time, dose: 100.0 mg/kg/injection, schedule: Q04DX003 (ip), vehicle: saline with Tween-80
[2] = endpoint: mean survival time, dose: 200.0 mg/kg/injection, schedule: Q04DX003 (ip), vehicle: saline with Tween-80
[3] = endpoint: mean survival time, dose: 400.0 mg/kg/injection, schedule: Q04DX003 (ip), vehicle: saline with Tween-80
[4] = endpoint: mean survival time, dose: 100.0 mg/kg/injection, schedule: Q01DX009 (ip), vehicle: saline with Tween-80
[5] = endpoint: mean survival time, dose: 200.0 mg/kg/injection, schedule: Q01DX009 (ip), vehicle: saline with Tween-80
[6] = endpoint: mean survival time, dose: 400.0 mg/kg/injection, schedule: Q01DX009 (ip), vehicle: saline with Tween-80

`COc1cccc2c1C(=O)c1c(O)c3c(c(O)c1C2=O)C[C@@](O)(C(C)=O)C[C@@H]3OC1CC(N(Cc2ccccc2)Cc2ccccc2)C(O)C(C)O1` (stereo partly drawn) was tested, and the T/C (endpoint: mean survival time, dose: 1.5 mg/kg/injection, schedule: Q01DX009 (ip), vehicle: saline with Tween-80) was 105 % of control, the T/C (endpoint: mean survival time, dose: 3.0 mg/kg/injection, schedule: Q01DX009 (ip), vehicle: saline with Tween-80) was 111 % of control and the T/C (endpoint: mean survival time, dose: 6.0 mg/kg/injection, schedule: Q01DX009 (ip), vehicle: saline with Tween-80) was 117 % of control. For the same compound, the T/C (endpoint: mean survival time, dose: 12.0 mg/kg/injection, schedule: Q01DX009 (ip), vehicle: saline with Tween-80) was 150 % of control, the T/C (endpoint: mean survival time, dose: 24.0 mg/kg/injection, schedule: Q01DX009 (ip), vehicle: saline with Tween-80) was 115 % of control and the T/C (endpoint: mean survival time, dose: 48.0 mg/kg/injection, schedule: Q01DX009 (ip), vehicle: saline with Tween-80) was 94 % of control.
With `CC(=O)CCC(=O)OC1CCCCC1` the T/C [1] was 102 % of control, the T/C [2] was 97 % of control and the T/C [3] was 97 % of control.
For `C=C(C)CNC1=C(C)C(=O)C2=C(C1=O)[C@@H](COC(N)=O)[C@]1(OC)[C@@H]3N[C@@H]3CN21`, the T/C (endpoint: mean survival time, dose: 1.5 mg/kg/injection, schedule: Q01DX001 (ip), vehicle: water) was 97 % of control, the T/C (endpoint: mean survival time, dose: 3.0 mg/kg/injection, schedule: Q01DX001 (ip), vehicle: water) was 103 % of control and the T/C (endpoint: mean survival time, dose: 6.0 mg/kg/injection, schedule: Q01DX001 (ip), vehicle: distilled water + Tween-80) was 104 % of control. The T/C (endpoint: mean survival time, dose: 6.0 mg/kg/injection, schedule: Q01DX001 (ip), vehicle: water) was 103 % of control, the T/C (endpoint: mean survival time, dose: 12.0 mg/kg/injection, schedule: Q01DX001 (ip), vehicle: distilled water + Tween-80) was 114 % of control and the T/C (endpoint: mean survival time, dose: 12.0 mg/kg/injection, schedule: Q01DX001 (ip), vehicle: water) was 108 % of control. For the same compound, the T/C (endpoint: mean survival time, dose: 48.0 mg/kg/injection, schedule: Q01DX001 (ip), vehicle: distilled water + Tween-80) was 108 % of control.
In the case of `COc1cc2c(cc1OC)C(Cc1ccc3cc(OC)c(OC)cc3c1)=NCC2`, the T/C [4] was 93 % of control, the T/C [1] was 87 % of control and the T/C [5] was 101 % of control. The T/C [2] was 89 % of control, the T/C [6] was 110 % of control and the T/C [3] was 101 % of control.
With `[Cl][Mn][Cl]` the T/C (endpoint: median survival time, dose: 8.0 mg/kg/injection, schedule: Q01DX009 (ip), vehicle: saline) was 92 % of control, the T/C (endpoint: median survival time, dose: 16.0 mg/kg/injection, schedule: Q01DX009 (ip), vehicle: saline) was 97 % of control and the T/C (endpoint: median survival time, dose: 32.0 mg/kg/injection, schedule: Q01DX009 (ip), vehicle: saline) was 103 % of control. The T/C (endpoint: median survival time, dose: 64.0 mg/kg/injection, schedule: Q01DX009 (ip), vehicle: saline) was 110 % of control.
`O=C(CCCCl)CC(O)(C(F)(F)Cl)C(F)(F)Cl` was tested, and the T/C (endpoint: mean survival time, dose: 25.0 mg/kg/injection, schedule: Q01DX009 (ip), vehicle: saline) was 94 % of control, the T/C (endpoint: mean survival time, dose: 50.0 mg/kg/injection, schedule: Q01DX009 (ip), vehicle: saline) was 100 % of control and the T/C (endpoint: mean survival time, dose: 100.0 mg/kg/injection, schedule: Q01DX009 (ip), vehicle: saline) was 94 % of control.
In the case of `CC(=O)OCCC/C(=C/c1c[nH]c2ccccc12)[N+](=O)[O-]`, the T/C (endpoint: mean survival time, dose: 100.0 mg/kg/injection, schedule: Q01DX001 (ip), vehicle: saline) was 97 % of control, the T/C (endpoint: mean survival time, dose: 200.0 mg/kg/injection, schedule: Q01DX001 (ip), vehicle: saline) was 102 % of control and the T/C (endpoint: mean survival time, dose: 400.0 mg/kg/injection, schedule: Q01DX001 (ip), vehicle: saline) was 109 % of control.
With `CC(=O)Nc1ccc(OC(=O)Nc2cccc(F)c2)cc1` the T/C [4] was 91 % of control, the T/C [5] was 95 % of control and the T/C [6] was 91 % of control.
`CCCCCCCCCCCCCCCCCCCCCC(CC)CC` was tested, and the T/C (endpoint: mean survival time, dose: 100.0 mg/kg/injection, schedule: Q01DX001 (ip), vehicle: saline with Tween-80) was 101 % of control, the T/C (endpoint: mean survival time, dose: 200.0 mg/kg/injection, schedule: Q01DX001 (ip), vehicle: saline with Tween-80) was 107 % of control and the T/C (endpoint: mean survival time, dose: 400.0 mg/kg/injection, schedule: Q01DX001 (ip), vehicle: saline with Tween-80) was 103 % of control.
